Reference: the kinase profiling compilation of Christmann-Franck et al. (2016)

Assays:
Assay in all cases: radiometric filter-binding kinase assay, Kinase HotSpot
Details in all cases: compound 0.5 µM; ATP 10 µM
CAMK2D (human) = CAMK2D (human) (UniProt Q13557)
MLTK (human) = MLTK (human) (UniProt Q9NYL2)
EPHA3 (human) = EPHA3 (human) (UniProt P29320)
MST4 (human) = MST4 (human) (UniProt Q9P289)
WEE1 (human) = WEE1 (human) (UniProt P30291)
CLK4 (human) = CLK4 (human) (UniProt Q9HAZ1)
NEK1 (human) = NEK1 (human) (UniProt Q96PY6)
EPHB3 (human) = EPHB3 (human) (UniProt P54753)
MARK1 (human) = MARK1 (human) (UniProt Q9P0L2)
MAPK12 (human) = MAPK12 (human) (UniProt P53778)
AURKB (human) = AURKB (human) (UniProt Q96GD4)
STK4 (human) = STK4 (human) (UniProt Q13043)
TAOK1 (human) = TAOK1 (human) (UniProt Q7L7X3)
TAOK1 (human), sequence (Q7L7X3 whole entry, looked up): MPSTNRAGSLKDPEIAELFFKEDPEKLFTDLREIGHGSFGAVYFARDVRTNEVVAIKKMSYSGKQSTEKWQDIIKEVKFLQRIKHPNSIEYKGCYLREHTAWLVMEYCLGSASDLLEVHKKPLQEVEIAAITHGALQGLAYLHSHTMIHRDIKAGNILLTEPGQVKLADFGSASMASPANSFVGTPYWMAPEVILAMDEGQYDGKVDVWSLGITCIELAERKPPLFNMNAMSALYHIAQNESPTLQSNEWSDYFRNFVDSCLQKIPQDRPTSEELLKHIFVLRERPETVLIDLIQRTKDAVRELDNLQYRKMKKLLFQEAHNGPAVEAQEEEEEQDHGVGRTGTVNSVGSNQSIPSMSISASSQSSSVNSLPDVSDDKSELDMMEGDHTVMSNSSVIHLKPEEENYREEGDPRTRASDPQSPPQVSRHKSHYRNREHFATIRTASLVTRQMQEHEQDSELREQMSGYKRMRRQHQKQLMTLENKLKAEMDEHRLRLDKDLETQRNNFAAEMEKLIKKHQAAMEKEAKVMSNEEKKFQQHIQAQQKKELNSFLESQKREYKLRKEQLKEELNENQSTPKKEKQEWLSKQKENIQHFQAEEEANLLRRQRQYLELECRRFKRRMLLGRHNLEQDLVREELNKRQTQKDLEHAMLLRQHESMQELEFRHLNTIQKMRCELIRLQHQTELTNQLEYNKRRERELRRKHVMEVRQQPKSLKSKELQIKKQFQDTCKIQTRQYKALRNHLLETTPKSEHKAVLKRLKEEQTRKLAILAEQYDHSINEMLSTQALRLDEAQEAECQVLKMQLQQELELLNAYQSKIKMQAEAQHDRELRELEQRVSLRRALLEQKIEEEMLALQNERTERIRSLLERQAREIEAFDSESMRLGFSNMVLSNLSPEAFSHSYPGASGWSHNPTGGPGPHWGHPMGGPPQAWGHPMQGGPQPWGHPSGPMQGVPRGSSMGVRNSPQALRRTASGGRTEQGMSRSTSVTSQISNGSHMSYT

TGFBR1 (human) = TGFBR1 (human) (UniProt P36897)
PLK3 (human) = PLK3 (human) (UniProt Q9H4B4)
DAPK3 (human) = DAPK3 (human) (UniProt O43293)
PRKD3 (human) = PRKD3 (human) (UniProt O94806)
FGFR2 (human) = FGFR2 (human) (UniProt P21802)
PAK7 (human) = PAK7 (human) (UniProt Q9P286)
NEK2 (human) = NEK2 (human) (UniProt P51955)
MKNK2 (human) = MKNK2 (human) (UniProt Q9HBH9)
YES1 (human) = YES1 (human) (UniProt P07947)
STK39 (human) = STK39 (human) (UniProt Q9UEW8)
CHEK1 (human) = CHEK1 (human) (UniProt O14757)
SIK2 (human) = SIK2 (human) (UniProt Q9H0K1)
NLK (human) = NLK (human) (UniProt Q9UBE8)
EPHB4 (human) = EPHB4 (human) (UniProt P54760)
CDK9 CCNT1 (human) = CDK9 CCNT1 (human) (UniProt P50750+O60563)
SGK3 (human) = SGK3 (human) (UniProt Q96BR1)
CDK4 CCND3 (human) = CDK4 CCND3 (human) (UniProt P30281+P11802)
MST1R (human) = MST1R (human) (UniProt Q04912)
PIM2 (human) = PIM2 (human) (UniProt Q9P1W9)
PIM2 (human), sequence (Q9P1W9 whole entry, looked up): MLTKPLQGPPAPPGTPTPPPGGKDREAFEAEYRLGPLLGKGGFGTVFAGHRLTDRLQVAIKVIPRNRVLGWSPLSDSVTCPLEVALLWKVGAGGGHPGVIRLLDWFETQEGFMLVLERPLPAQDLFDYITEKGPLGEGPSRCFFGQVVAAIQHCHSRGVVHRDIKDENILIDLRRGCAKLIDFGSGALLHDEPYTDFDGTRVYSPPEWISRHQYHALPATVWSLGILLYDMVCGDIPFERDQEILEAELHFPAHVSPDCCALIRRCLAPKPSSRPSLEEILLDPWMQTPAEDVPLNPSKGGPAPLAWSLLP

PRKX (human) = PRKX (human) (UniProt P51817)
CAMK1G (human) = CAMK1G (human) (UniProt Q96NX5)
CAMK1G (human), sequence (Q96NX5 whole entry, looked up): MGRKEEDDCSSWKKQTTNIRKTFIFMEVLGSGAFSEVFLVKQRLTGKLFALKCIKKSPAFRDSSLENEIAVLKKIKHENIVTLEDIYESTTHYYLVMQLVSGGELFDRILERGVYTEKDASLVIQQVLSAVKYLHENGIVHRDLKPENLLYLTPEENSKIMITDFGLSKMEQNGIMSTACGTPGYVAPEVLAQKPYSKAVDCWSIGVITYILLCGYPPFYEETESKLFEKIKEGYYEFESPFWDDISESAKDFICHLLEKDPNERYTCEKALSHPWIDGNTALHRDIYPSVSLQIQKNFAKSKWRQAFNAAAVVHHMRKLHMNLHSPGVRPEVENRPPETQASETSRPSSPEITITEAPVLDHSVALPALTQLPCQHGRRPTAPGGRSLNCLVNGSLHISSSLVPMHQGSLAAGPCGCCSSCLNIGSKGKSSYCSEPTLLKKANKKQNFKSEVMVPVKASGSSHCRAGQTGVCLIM

ROS1 (human) = ROS1 (human) (UniProt P08922)
MYLK (human) = MYLK (human) (UniProt Q15746)
MYLK (human), sequence (Q15746 whole entry, looked up): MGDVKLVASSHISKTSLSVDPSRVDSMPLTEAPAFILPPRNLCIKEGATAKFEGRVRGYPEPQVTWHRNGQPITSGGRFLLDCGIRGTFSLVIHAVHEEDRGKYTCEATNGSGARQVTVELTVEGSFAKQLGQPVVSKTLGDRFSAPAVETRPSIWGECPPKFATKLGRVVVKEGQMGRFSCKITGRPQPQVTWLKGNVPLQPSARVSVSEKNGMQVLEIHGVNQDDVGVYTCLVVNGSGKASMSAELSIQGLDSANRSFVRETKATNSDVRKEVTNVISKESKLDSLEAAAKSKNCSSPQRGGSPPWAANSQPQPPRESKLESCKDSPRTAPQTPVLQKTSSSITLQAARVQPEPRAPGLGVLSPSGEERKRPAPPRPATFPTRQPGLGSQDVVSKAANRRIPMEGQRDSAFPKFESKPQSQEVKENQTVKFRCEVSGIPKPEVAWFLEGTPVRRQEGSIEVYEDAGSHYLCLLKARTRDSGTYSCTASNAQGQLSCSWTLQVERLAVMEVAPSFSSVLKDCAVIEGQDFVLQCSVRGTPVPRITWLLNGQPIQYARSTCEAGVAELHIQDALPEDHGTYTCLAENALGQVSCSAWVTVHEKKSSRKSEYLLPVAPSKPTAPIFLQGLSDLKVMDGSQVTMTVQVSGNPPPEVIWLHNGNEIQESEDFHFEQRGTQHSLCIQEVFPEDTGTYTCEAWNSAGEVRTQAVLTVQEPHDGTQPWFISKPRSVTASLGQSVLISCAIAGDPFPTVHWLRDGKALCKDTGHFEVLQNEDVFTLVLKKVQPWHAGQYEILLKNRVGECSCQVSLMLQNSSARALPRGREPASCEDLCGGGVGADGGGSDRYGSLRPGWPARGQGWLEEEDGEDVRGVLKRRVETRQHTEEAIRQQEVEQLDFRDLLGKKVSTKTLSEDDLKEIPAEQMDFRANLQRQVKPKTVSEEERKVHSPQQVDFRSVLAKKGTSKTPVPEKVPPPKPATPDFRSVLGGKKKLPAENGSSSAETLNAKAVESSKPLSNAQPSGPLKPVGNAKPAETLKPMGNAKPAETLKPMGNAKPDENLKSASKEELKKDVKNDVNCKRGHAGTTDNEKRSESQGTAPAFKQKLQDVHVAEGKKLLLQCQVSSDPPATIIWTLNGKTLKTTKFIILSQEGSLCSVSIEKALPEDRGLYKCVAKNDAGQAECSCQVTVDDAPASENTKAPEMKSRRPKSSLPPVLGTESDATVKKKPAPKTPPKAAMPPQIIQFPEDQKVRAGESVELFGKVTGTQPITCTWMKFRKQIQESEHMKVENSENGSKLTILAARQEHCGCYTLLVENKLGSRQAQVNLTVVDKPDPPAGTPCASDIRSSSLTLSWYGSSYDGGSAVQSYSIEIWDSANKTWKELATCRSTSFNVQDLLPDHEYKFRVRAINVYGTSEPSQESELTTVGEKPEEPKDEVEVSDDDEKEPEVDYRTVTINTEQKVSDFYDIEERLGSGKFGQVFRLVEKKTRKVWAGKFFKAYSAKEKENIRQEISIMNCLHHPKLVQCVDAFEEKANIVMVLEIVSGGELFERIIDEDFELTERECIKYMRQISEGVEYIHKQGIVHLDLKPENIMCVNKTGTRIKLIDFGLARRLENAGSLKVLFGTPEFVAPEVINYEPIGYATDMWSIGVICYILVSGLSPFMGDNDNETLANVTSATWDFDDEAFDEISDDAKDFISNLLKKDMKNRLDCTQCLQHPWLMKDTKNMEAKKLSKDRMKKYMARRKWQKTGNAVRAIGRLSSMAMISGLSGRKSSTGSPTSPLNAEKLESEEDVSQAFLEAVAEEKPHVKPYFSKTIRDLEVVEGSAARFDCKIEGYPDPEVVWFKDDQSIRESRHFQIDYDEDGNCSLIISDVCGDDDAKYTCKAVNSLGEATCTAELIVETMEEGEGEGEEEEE

ERBB4 (human) = ERBB4 (human) (UniProt Q15303)
HCK (human) = HCK (human) (UniProt P08631)
ACVR1B (human) = ACVR1B (human) (UniProt P36896)
PRKCA (human) = PRKCA (human) (UniProt P17252)
PRKCG (human) = PRKCG (human) (UniProt P05129)
IRAK4 (human) = IRAK4 (human) (UniProt Q9NWZ3)
IRAK4 (human), sequence (Q9NWZ3 whole entry, looked up): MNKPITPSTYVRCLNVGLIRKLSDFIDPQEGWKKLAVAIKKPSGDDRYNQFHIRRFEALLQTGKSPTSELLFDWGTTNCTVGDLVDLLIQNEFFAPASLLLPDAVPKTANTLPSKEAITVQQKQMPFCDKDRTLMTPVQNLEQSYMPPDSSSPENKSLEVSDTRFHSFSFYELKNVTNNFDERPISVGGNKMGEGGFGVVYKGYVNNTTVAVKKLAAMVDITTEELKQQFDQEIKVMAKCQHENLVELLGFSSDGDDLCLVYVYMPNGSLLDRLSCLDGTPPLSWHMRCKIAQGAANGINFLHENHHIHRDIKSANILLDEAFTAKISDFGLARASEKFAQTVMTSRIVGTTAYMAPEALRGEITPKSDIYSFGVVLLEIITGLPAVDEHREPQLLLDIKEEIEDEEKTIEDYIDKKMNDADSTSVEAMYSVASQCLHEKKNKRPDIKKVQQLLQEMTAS

CLK4 (human), sequence (Q9HAZ1 whole entry, looked up): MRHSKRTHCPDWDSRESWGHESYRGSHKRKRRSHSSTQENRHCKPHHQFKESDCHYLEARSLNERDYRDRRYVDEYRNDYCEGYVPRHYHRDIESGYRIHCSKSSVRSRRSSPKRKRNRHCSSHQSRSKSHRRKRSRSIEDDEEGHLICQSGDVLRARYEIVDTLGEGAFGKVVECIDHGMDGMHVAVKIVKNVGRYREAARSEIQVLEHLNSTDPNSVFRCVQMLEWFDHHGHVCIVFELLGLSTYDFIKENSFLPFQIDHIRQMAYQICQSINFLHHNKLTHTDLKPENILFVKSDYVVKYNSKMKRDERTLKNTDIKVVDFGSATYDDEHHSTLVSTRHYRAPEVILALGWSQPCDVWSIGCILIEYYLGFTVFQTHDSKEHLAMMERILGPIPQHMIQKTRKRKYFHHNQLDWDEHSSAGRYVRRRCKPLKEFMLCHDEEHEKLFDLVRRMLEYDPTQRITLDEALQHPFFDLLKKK
MST4 (human), sequence (Q9P289 whole entry, looked up): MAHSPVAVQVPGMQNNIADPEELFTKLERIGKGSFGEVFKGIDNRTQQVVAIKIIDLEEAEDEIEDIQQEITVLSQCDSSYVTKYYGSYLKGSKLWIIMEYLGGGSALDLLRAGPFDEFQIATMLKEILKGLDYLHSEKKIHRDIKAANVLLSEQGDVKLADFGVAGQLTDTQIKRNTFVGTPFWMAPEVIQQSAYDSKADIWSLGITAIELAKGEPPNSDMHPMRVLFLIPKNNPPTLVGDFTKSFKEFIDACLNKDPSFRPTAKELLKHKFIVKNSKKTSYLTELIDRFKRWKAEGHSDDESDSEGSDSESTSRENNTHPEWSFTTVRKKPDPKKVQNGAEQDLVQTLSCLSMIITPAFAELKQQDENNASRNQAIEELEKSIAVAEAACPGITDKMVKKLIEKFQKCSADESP

Cc1nc2cc3nc(-c4cccs4)cnc3cc2n1C
residual activity (CAMK2D (human)): 100% | residual activity (MLTK (human)): 89.1% | residual activity (EPHA3 (human)): 102% | residual activity (MST4 (human)): 99.3% | residual activity (WEE1 (human)): 86.9% | residual activity (CLK4 (human)): 79.2% | residual activity (NEK1 (human)): 94% | residual activity (EPHB3 (human)): 101% | residual activity (MARK1 (human)): 102% | residual activity (MAPK12 (human)): 103% | residual activity (AURKB (human)): 84.9% | residual activity (STK4 (human)): 97.4% | residual activity (TAOK1 (human)): 110% | residual activity (TGFBR1 (human)): 98.7% | residual activity (PLK3 (human)): 95.6% | residual activity (DAPK3 (human)): 102% | residual activity (PRKD3 (human)): 97.1% | residual activity (FGFR2 (human)): 91.8% | residual activity (PAK7 (human)): 114% | residual activity (NEK2 (human)): 97% | residual activity (MKNK2 (human)): 108% | residual activity (YES1 (human)): 66.9% | residual activity (STK39 (human)): 79.8% | residual activity (CHEK1 (human)): 99.8% | residual activity (SIK2 (human)): 112% | residual activity (NLK (human)): 105% | residual activity (EPHB4 (human)): 92.1% | residual activity (CDK9 CCNT1 (human)): 88.3% | residual activity (SGK3 (human)): 105% | residual activity (CDK4 CCND3 (human)): 101% | residual activity (MST1R (human)): 107% | residual activity (PIM2 (human)): 114% | residual activity (PRKX (human)): 106% | residual activity (CAMK1G (human)): 106% | residual activity (ROS1 (human)): 97.9% | residual activity (MYLK (human)): 97% | residual activity (ERBB4 (human)): 95% | residual activity (HCK (human)): 98% | residual activity (ACVR1B (human)): 104% | residual activity (PRKCA (human)): 74.7% | residual activity (PRKCG (human)): 94.9% | residual activity (IRAK4 (human)): 201%

O=C(Nc1cccc(Nc2cc(Nc3cccc(C(F)(F)F)c3)ncn2)c1)C1CC1
residual activity (CAMK2D (human)): 101% | residual activity (MLTK (human)): 97.1% | residual activity (EPHA3 (human)): 98.4% | residual activity (MST4 (human)): 98.9% | residual activity (WEE1 (human)): 94% | residual activity (CLK4 (human)): 97.3% | residual activity (NEK1 (human)): 109% | residual activity (EPHB3 (human)): 87.9% | residual activity (MARK1 (human)): 102% | residual activity (MAPK12 (human)): 89.2% | residual activity (AURKB (human)): 98.9% | residual activity (STK4 (human)): 99% | residual activity (TAOK1 (human)): 100% | residual activity (TGFBR1 (human)): 97.4% | residual activity (PLK3 (human)): 99.1% | residual activity (DAPK3 (human)): 99.8% | residual activity (PRKD3 (human)): 96.9% | residual activity (FGFR2 (human)): 105% | residual activity (PAK7 (human)): 97.5% | residual activity (NEK2 (human)): 99.5% | residual activity (MKNK2 (human)): 83.8% | residual activity (YES1 (human)): 99.6% | residual activity (STK39 (human)): 94.1% | residual activity (CHEK1 (human)): 105% | residual activity (SIK2 (human)): 89.4% | residual activity (NLK (human)): 95.9% | residual activity (EPHB4 (human)): 97.8% | residual activity (CDK9 CCNT1 (human)): 97.2% | residual activity (SGK3 (human)): 106% | residual activity (CDK4 CCND3 (human)): 105% | residual activity (MST1R (human)): 107% | residual activity (PIM2 (human)): 104% | residual activity (PRKX (human)): 107% | residual activity (CAMK1G (human)): 96.9% | residual activity (ROS1 (human)): 93.5% | residual activity (MYLK (human)): 99% | residual activity (ERBB4 (human)): 99.2% | residual activity (HCK (human)): 99% | residual activity (ACVR1B (human)): 101% | residual activity (PRKCA (human)): 101% | residual activity (PRKCG (human)): 102% | residual activity (IRAK4 (human)): 104%

O=C(CCCc1ccc(-c2ccccc2F)cc1)Nc1ccc(O)cc1
residual activity (CAMK2D (human)): 108% | residual activity (MLTK (human)): 97.8% | residual activity (EPHA3 (human)): 100% | residual activity (MST4 (human)): 91.5% | residual activity (WEE1 (human)): 83.7% | residual activity (CLK4 (human)): 103% | residual activity (NEK1 (human)): 100% | residual activity (EPHB3 (human)): 96.5% | residual activity (MARK1 (human)): 96.7% | residual activity (MAPK12 (human)): 104% | residual activity (AURKB (human)): 106% | residual activity (STK4 (human)): 95% | residual activity (TAOK1 (human)): 91.4% | residual activity (TGFBR1 (human)): 102% | residual activity (PLK3 (human)): 95% | residual activity (DAPK3 (human)): 104% | residual activity (PRKD3 (human)): 96.9% | residual activity (FGFR2 (human)): 102% | residual activity (PAK7 (human)): 90.3% | residual activity (NEK2 (human)): 90.6% | residual activity (MKNK2 (human)): 106% | residual activity (YES1 (human)): 110% | residual activity (STK39 (human)): 95.4% | residual activity (CHEK1 (human)): 98.8% | residual activity (SIK2 (human)): 102% | residual activity (NLK (human)): 101% | residual activity (EPHB4 (human)): 106% | residual activity (CDK9 CCNT1 (human)): 103% | residual activity (SGK3 (human)): 106% | residual activity (CDK4 CCND3 (human)): 110% | residual activity (MST1R (human)): 106% | residual activity (PIM2 (human)): 115% | residual activity (PRKX (human)): 106% | residual activity (CAMK1G (human)): 96.8% | residual activity (ROS1 (human)): 98.4% | residual activity (MYLK (human)): 98.6% | residual activity (ERBB4 (human)): 107% | residual activity (HCK (human)): 93.5% | residual activity (ACVR1B (human)): 95.9% | residual activity (PRKCA (human)): 100% | residual activity (PRKCG (human)): 98% | residual activity (IRAK4 (human)): 86.3%

COc1cc2ncnc(N3CCN(C(=O)Nc4ccc(Oc5ccccc5)cc4)CC3)c2cc1OC
residual activity (CAMK2D (human)): 70.9% | residual activity (MLTK (human)): 96.2% | residual activity (EPHA3 (human)): 93.7% | residual activity (MST4 (human)): 95.4% | residual activity (WEE1 (human)): 97.5% | residual activity (CLK4 (human)): 65.6% | residual activity (NEK1 (human)): 92.6% | residual activity (EPHB3 (human)): 89.6% | residual activity (MARK1 (human)): 99.1% | residual activity (MAPK12 (human)): 94.7% | residual activity (AURKB (human)): 76.1% | residual activity (STK4 (human)): 97.1% | residual activity (TAOK1 (human)): 81.6% | residual activity (TGFBR1 (human)): 99.5% | residual activity (PLK3 (human)): 91.8% | residual activity (DAPK3 (human)): 101% | residual activity (PRKD3 (human)): 97.5% | residual activity (FGFR2 (human)): 92.4% | residual activity (PAK7 (human)): 96.8% | residual activity (NEK2 (human)): 81.3% | residual activity (MKNK2 (human)): 94.2% | residual activity (YES1 (human)): 106% | residual activity (STK39 (human)): 83.2% | residual activity (CHEK1 (human)): 99.4% | residual activity (SIK2 (human)): 96% | residual activity (NLK (human)): 99.9% | residual activity (EPHB4 (human)): 99.3% | residual activity (CDK9 CCNT1 (human)): 97.3% | residual activity (SGK3 (human)): 97.6% | residual activity (CDK4 CCND3 (human)): 90.3% | residual activity (MST1R (human)): 90.3% | residual activity (PIM2 (human)): 101% | residual activity (PRKX (human)): 99.3% | residual activity (CAMK1G (human)): 100% | residual activity (ROS1 (human)): 89.7% | residual activity (MYLK (human)): 101% | residual activity (ERBB4 (human)): 101% | residual activity (HCK (human)): 91.7% | residual activity (ACVR1B (human)): 94.7% | residual activity (PRKCA (human)): 98% | residual activity (PRKCG (human)): 104% | residual activity (IRAK4 (human)): 83.5%
